In patent publication US8519154B2, “Method for treatment of bronchial asthma” (Council of Scientific & Industrial Research, priority 2011, dated 2013):
Read-outs that look alike come from different tables or passages of the source.

What was measured:
[1] = tested on: mice; experiment: Analgesic activity by hot plate method; assay type: in vivo
Procedure: Analgesic activity was carried out by Hot Plate method. The response time for paw licking or jumping on the heated plate of analgesiometer (55±1° C.). (Socrel, Ugo Basile, Italy) was taken as the reaction time. A comparison of reaction time (in seconds) between control (untreated) and Compound I treated mice was made for a group of 6 animals in each test group [Eddy, N B., Leimbach, D., Synthetic analgesics, II. Dithienylbutenyl- and dithienylbutylamines. J. Pharmacol. Exp. Ther. 107 (1953) 385-393].
The time for hind paw licking or jumping on the heated plate of analgesiometer (Socrel, ugo basile, Italy) was taken as the reaction time.

[2] = Organ distribution of ICB/11/D-8; assay type: in vivo; conditions: Swiss, mouse, N=4 mice
Procedure: Organ Distribution of ICB/11/D-8 (ug/100 mg tissue, N=4 mice, 50

[3] = target: CYP 3A4 (liver) (Homo sapiens, UniProt P08684); experiment: Metabolism by CYP 3A4; assay type: in vitro ADME
Chain of CYP 3A4 (liver) (P08684 whole entry, species assumed): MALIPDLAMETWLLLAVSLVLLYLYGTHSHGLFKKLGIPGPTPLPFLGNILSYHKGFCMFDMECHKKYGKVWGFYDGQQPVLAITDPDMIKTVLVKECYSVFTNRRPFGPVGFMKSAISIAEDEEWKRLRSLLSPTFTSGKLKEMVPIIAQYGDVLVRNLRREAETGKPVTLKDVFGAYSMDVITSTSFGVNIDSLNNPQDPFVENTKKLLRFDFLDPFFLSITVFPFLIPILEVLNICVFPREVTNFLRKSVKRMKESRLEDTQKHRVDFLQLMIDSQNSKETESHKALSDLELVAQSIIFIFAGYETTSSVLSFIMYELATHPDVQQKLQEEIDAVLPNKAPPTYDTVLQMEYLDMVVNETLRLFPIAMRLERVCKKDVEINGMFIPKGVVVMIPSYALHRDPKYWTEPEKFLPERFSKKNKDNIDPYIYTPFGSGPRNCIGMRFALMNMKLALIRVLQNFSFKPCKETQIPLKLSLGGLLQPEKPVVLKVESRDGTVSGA

[4] = Crossing of the intestinal barrier; assay type: in vitro ADME
[5] = tested on: PDE-4; experiment: Phosphodiesterase 4 assay, [3H]cAMP SPA enzyme assay, enzyme preparation from rat heart; assay type: biochemical
Procedure: For phosphodiesterase (PDE-4) assay, enzyme preparations were performed from rat heart (Ko et al 2004, Biochemical Pharmacology 68:2087-2094). Heart was excised from anesthetized rat and transfer into normal saline solution. Heart weighing 687 mg was taken and homogenized in 2.5 volumes of homogenization buffer containing 20 mM Tris-Cl, 50 mM NaCl, 2 mM EDTA, 0.1 mM PMSF, […], protease inhibitors 1 μg/μl. The homogenate was centrifuged at 500×g for 5 minute at 4° C. Then sup was taken for further centrifuged at 40,000×g for 30 minute (ultra centrifugation). After centrifugation supernatant was collected for phosphodiesterase assay. Protein concentration was estimated and for each assay, 2.5 μg protein (PDE enzyme preparation) was used. All compounds tested for PDE 4 activity were dissolved in DMSO.
Phosphodiesterase 4 assay: Phosphodiesterase 4 assay was conducted with [^3H] cAMP SPA enzyme assay (GE Amersham, UK) using 2.5 μg enzyme preparation for each well. Into each well 60 μl water, 10 μl assay buffer supplied with the kit, 10 μl compound (inhibitor), 10 μl PDE enzyme or homogenizing buffer (blank) and […] radiolabel led cAMP ([^3H]cAMP, GE Amersham, UK) were added. To check activity of the enzyme without inhibitor (compound) 10 μl DMSO was added in place of inhibitor to a separate well. The reaction mixtures were incubated for […] at 30° C. The reaction was stopped by adding 50 μl SPA bead supplied with the kit. It was then mixed well and allowed to stand at room temperature for 20 min. Breakdown of cAMP in each tube was monitored by β counter. The reading in each tube was obtained in counts per minute (CPM). The reading of the blank tube (without enzyme) was subtracted from each tube to normalize the counts. The enzyme activity was calculated by considering the CPM reading without any inhibitor (compound) as 100.

[6] = Lipophilicity; assay type: physicochemical
[7] = tested on: mice; experiment: Electric shock induced convulsions; assay type: in vivo, Swiss mice
Procedure: Convulsion were induced by a single electroshock (50 Hz in frequency, 0.5 ms pulse width, 50 mA current for 0.3 s) applied through bi-polar electrodes attached to the ear pinna on both side using a pulse generator (Ugo Basile, Italy). The convulsive activity (determined by loss of tonic extensor seizure) was recorded in control (untreated) and Compound I were treated (before electro-shock application) animals [Achliya, G S, Wadodkar, S G, Darle, A K., Evaluation of CNS activity of Bramhi Ghrita. Indian J. Pharmacol. 37 (2005) 33-36].
Anti-convulsant activity was measured by electric shock induced seizure. Five Swiss mice were used for one dose of drug. Convulsion were induced by a single electroshock (50 Hz in frequency, 0.5 ms pulse width, 50 mA current for 0.3 s) applied through bi-polar electrodes attached to the ear pinna on both side by a pulse generator (Ugo Basile, Italy) Test drug were administered orally 60 min before electroshock application, and convulsive activity was determined by loss of tonic extensor seizure.

## COc1cc(C=O)cc2c1[nH]c1ccccc12 [Compound I, 1-methoxy-3-formyl-9H carbazole]
[1]; 12.5 mg/kg p.o., 0 hr
  Reaction time: 11.08 ± 1.60 s
[1]; 12.5 mg/kg p.o., 1 hr
  Reaction time: 10.62 ± 1.64 s
[1]; 25 mg/kg p.o., 0 hr
  Reaction time: 13.58 ± 2.15 s
[1]; 25 mg/kg p.o., 1 hr
  Reaction time: 14.62 ± 4.67 s
[1]; 50 mg/kg p.o., 0 hr
  Reaction time: 14.38 ± 1.87 s
[1]; 50 mg/kg p.o., 1 hr
  Reaction time: 14.34 ± 1.07 s
[1]; 12.5, 25 and 50 mg/kg orally, 55±1° C.
  change in the reaction time on a hot plate: did not show any significant change in the reaction time
[2]; brain, 0.5 hr, read-out: Organ distribution: Brain
  concentration at 0.5 hr: 2300 ng/g
[2]; brain, 2 hr, read-out: Organ distribution: Brain
  concentration at 2 hr: 26700 ng/g
[2]; brain, 4 hr, read-out: Organ distribution: Brain
  concentration at 4 hr: 43300 ng/g
[2]; brain, 12 hr, read-out: Organ distribution: Brain
  concentration at 12 hr: 3600 ng/g
[2]; heart, 50 not found, 0.5 hr, read-out: Organ distribution: Heart
  concentration at 0.5 hr: 185000 ng/g
[2]; heart, 2 hr, read-out: Organ distribution: Heart
  concentration at 2 hr: 263000 ng/g
[2]; heart, 4 hr, read-out: Organ distribution: Heart
  concentration at 4 hr: 168000 ng/g
[2]; heart, 12 hr, read-out: Organ distribution: Heart
  concentration at 12 hr: 32200 ng/g
[2]; intestine, 0.5 hr
  concentration at 0.5 h: 105000 ng/g
[2]; intestine, 2 hr
  concentration at 2 h: 168000 ng/g
[2]; intestine, 4 hr
  concentration at 4 h: 124000 ng/g
[2]; intestine, 12 hr
  concentration at 12 h: 25500 ng/g
[2]; kidneys, 0.5 hr, read-out: Organ distribution: Kidneys
  concentration at 0.5 hr: 135000 ng/g
[2]; kidneys, 2 hr, read-out: Organ distribution: Kidneys
  concentration at 2 hr: 171000 ng/g
[2]; kidneys, 4 hr, read-out: Organ distribution: Kidneys
  concentration at 4 hr: 105000 ng/g
[2]; kidneys, 12 hr, read-out: Organ distribution: Kidneys
  concentration at 12 hr: 15800 ng/g
[2]; liver, 0.5 hr, read-out: Organ distribution: Liver
  concentration at 0.5 hr: 89500 ng/g
[2]; liver, 2 hr, read-out: Organ distribution: Liver
  concentration at 2 hr: 168000 ng/g
[2]; liver, 4 hr, read-out: Organ distribution: Liver
  concentration at 4 hr: 110000 ng/g
[2]; liver, 12 hr, read-out: Organ distribution: Liver
  concentration at 12 hr: 12500 ng/g
[2]; lungs, 50 not found, 2 hr, read-out: Organ distribution: Lungs
  concentration at 2 hr: 273000 ng/g
[2]; lungs, 50 not found, 4 hr, read-out: Organ distribution: Lungs
  concentration at 4 hr: 80700 ng/g
[2]; lungs, 50 not found, 12 hr, read-out: Organ distribution: Lungs
  concentration at 12 hr: 6700 ng/g
[2]; lungs, 0.5 hr, read-out: Organ distribution: Lungs
  concentration at 0.5 hr: 122000 ng/g
[2]; spleen, 50 not found, 0.5 hr, read-out: Organ distribution: Spleen
  concentration at 0.5 hr: 123000 ng/g
[2]; spleen, 50 not found, 2 hr, read-out: Organ distribution: Spleen
  concentration at 2 hr: 140000 ng/g
[2]; spleen, 50 not found, 4 hr, read-out: Organ distribution: Spleen
  concentration at 4 hr: 52500 ng/g
[2]; spleen, 50 not found, 12 hr, read-out: Organ distribution: Spleen
  concentration at 12 hr: 9100 ng/g
[2]; stomach, 0.5 hr, read-out: Organ distribution: Stomach
  concentration at 0.5 hr: 378000 ng/g
[2]; stomach, 2 hr, read-out: Organ distribution: Stomach
  concentration at 2 hr: 689000 ng/g
[2]; stomach, 4 hr, read-out: Organ distribution: Stomach
  concentration at 4 hr: 227000 ng/g
[2]; stomach, 12 hr, read-out: Organ distribution: Stomach
  concentration at 12 hr: 43300 ng/g
[2]; urine, 0.5 hr, read-out: Organ distribution: Urine/ml
  concentration at 0.5 hr: 2600 ng/mL
[2]; urine, 2 hr, read-out: Organ distribution: Urine/ml
  concentration at 2 hr: 6560 ng/mL
[2]; urine, 4 hr, read-out: Organ distribution: Urine/ml
  concentration at 4 hr: 4070 ng/mL
[2]; male, testes, 0.5 hr, read-out: Organ distribution: Testes
  concentration at 0.5 hr: 168000 ng/g
[2]; male, testes, 2 hr, read-out: Organ distribution: Testes
  concentration at 2 hr: 313000 ng/g
[2]; male, testes, 4 hr, read-out: Organ distribution: Testes
  concentration at 4 hr: 58800 ng/g
[2]; male, testes, 12 hr, read-out: Organ distribution: Testes
  concentration at 12 hr: 7800 ng/g
[3]
  metabolism: metabolized by CYP 3A4 (liver)
[4]
  crosses the intestinal barrier: largely by passive diffusion
[5]; 0.1 μg/ml
  % of Inhibition: 1.4%
[5]; 1 μg/ml
  % of Inhibition: 34.7%
[5]; 10 μg/ml
  % of Inhibition: 73.1%
[5]; compound of natural origin (extraction from plants)
  IC50: 20 µM
[5]; compound of natural origin, compared with rolipram
  extent of inhibition of PDE 4 activity: comparable to known PDE 4 inhibitor, rolipram
[5]; synthetically prepared compound (chemical origin)
  IC50: 0.05 µM
[6]
  lipophilicity: highly lipophilic
[7]; 12.5 mg/kg p.o.
  Convulsions Clonic: 5/5
  Convulsions Tonic: 5/5
  Mortality: 1/5
[7]; 50 mg/kg p.o.
  Convulsions Clonic: 5/5
  Convulsions Tonic: 5/5
  Mortality: 0/5
[7]; 100 mg/kg p.o.
  Convulsions Clonic: 5/5
  Convulsions Tonic: 5/5
  Mortality: 0/5
[7]; 12.5, 25 and 50 mg/kg orally
  anti-convulsant activity: no anti-convulsant activity
